Results taken from the NIST ThermoML archive (doi:10.1021/je030223f).
Where “and” joins values, the source holds several entries; their conditions need not be identical. Identical values can stand only once.

Details: Liquid, Calculated from knudsen effusion weight loss

[I][Tm]([I])[I] [thulium triiodide]
Details	vapor or sublimation pressure
887 K	0.0001318 kPa
888 K	7.763e-05 kPa
897 K	0.0001585 kPa
899 K	0.0001175 kPa
902 K	0.0002089 kPa
905 K	0.0002344 kPa and 0.0001698 kPa
906 K	0.0002291 kPa and 0.0001585 kPa
907 K	0.0002089 kPa
909 K	0.0001585 kPa
911 K	0.0002884 kPa
912 K	0.0003162 kPa and 0.0002089 kPa
914 K	0.000309 kPa and 0.0002344 kPa
916 K	0.0002884 kPa and 0.0002089 kPa
920 K	0.0004467 kPa and 0.0004571 kPa
921 K	0.0003715 kPa
922 K	0.0003162 kPa
923 K	0.0003388 kPa
925 K	0.0004169 kPa and 0.0002884 kPa
928 K	0.0005012 kPa
930 K	0.000631 kPa and 0.0006607 kPa
931 K	0.0004169 kPa
932 K	0.000537 kPa and 0.0004677 kPa
933 K	0.000389 kPa
936 K	0.0006607 kPa
938 K	0.0008318 kPa and 0.0005495 kPa
939 K	0.0007079 kPa and 0.000912 kPa
940 K	0.0005248 kPa
941 K	0.0006607 kPa
946 K	0.000955 kPa and 0.001122 kPa
947 K	0.0007586 kPa
948 K	0.001148 kPa and 0.000955 kPa
949 K	0.0007244 kPa
951 K	0.0009772 kPa
953 K	0.001148 kPa
954 K	0.001479 kPa
955 K	0.001318 kPa and 0.001047 kPa
956 K	0.001585 kPa and 0.0009333 kPa
959 K	0.00182 kPa
960 K	0.001288 kPa
961 K	0.001445 kPa and 0.001905 kPa
963 K	0.001738 kPa and 0.001349 kPa
964 K	0.00123 kPa
966 K	0.002089 kPa and 0.002291 kPa and 0.001585 kPa
968 K	0.002754 kPa
969 K	0.001862 kPa
970 K	0.002512 kPa
971 K	0.002344 kPa and 0.001585 kPa
973 K	0.00257 kPa and 0.001862 kPa
975 K	0.002512 kPa
976 K	0.003631 kPa and 0.002951 kPa and 0.002138 kPa
978 K	0.003388 kPa
980 K	0.00309 kPa and 0.002042 kPa
981 K	0.002818 kPa and 0.002399 kPa
983 K	0.004365 kPa
984 K	0.002754 kPa
987 K	0.004571 kPa
988 K	0.00389 kPa
989 K	0.002818 kPa and 0.00309 kPa
991 K	0.005495 kPa and 0.005012 kPa
993 K	0.003548 kPa
999 K	0.007079 kPa and 0.00631 kPa
1002 K	0.004898 kPa
1006 K	0.009333 kPa
1008 K	0.00871 kPa
1014 K	0.01122 kPa
1017 K	0.01148 kPa
1024 K	0.01514 kPa
1025 K	0.01445 kPa
1032 K	0.01995 kPa
1034 K	0.0195 kPa
1043 K	0.02818 kPa and 0.0257 kPa
1051 K	0.03715 kPa and 0.03311 kPa

[Br-].[Br-].[Br-].[Tm+3] [thulium tribromide]
Details	vapor or sublimation pressure
921 K	0.0001148 kPa
924 K	0.0001259 kPa
927 K	0.0001349 kPa
931 K	0.0002042 kPa
937 K	0.0002042 kPa
938 K	0.0002188 kPa and 0.0002754 kPa
942 K	0.0002291 kPa
947 K	0.000309 kPa and 0.0004074 kPa
949 K	0.0003467 kPa
952 K	0.0004074 kPa
953 K	0.0003631 kPa
956 K	0.0004571 kPa
958 K	0.0005888 kPa
961 K	0.0005012 kPa
964 K	0.0006607 kPa
965 K	0.0006607 kPa
967 K	0.0007762 kPa
968 K	0.000631 kPa
971 K	0.0007244 kPa
974 K	0.0009772 kPa
976 K	0.000912 kPa
978 K	0.001096 kPa
980 K	0.0009772 kPa
984 K	0.001318 kPa
987 K	0.001288 kPa
988 K	0.001514 kPa and 0.001349 kPa
990 K	0.001445 kPa
995 K	0.001622 kPa
999 K	0.002399 kPa
1000 K	0.001995 kPa
1001 K	0.002239 kPa
1004 K	0.00257 kPa and 0.002291 kPa
1006 K	0.002692 kPa
1007 K	0.002455 kPa
1009 K	0.003236 kPa and 0.002951 kPa
1013 K	0.003236 kPa and 0.004074 kPa
1015 K	0.003467 kPa and 0.003162 kPa
1019 K	0.003548 kPa
1020 K	0.004571 kPa and 0.004677 kPa
1022 K	0.00537 kPa
1024 K	0.004365 kPa
1025 K	0.004677 kPa
1026 K	0.004786 kPa
1027 K	0.004571 kPa
1028 K	0.005623 kPa
1030 K	0.005623 kPa
1033 K	0.005495 kPa
1035 K	0.006607 kPa
1037 K	0.005754 kPa
1038 K	0.007762 kPa
1039 K	0.006918 kPa
1042 K	0.006607 kPa
1043 K	0.008511 kPa
1046 K	0.00955 kPa
1048 K	0.01288 kPa
1050 K	0.00955 kPa
1056 K	0.01349 kPa
1061 K	0.01445 kPa
1063 K	0.01318 kPa
1066 K	0.01995 kPa
1070 K	0.01995 kPa
1073 K	0.02754 kPa
1076 K	0.02512 kPa
1080 K	0.0263 kPa
1088 K	0.03388 kPa
1089 K	0.04074 kPa
1092 K	0.03467 kPa
1096 K	0.04266 kPa
1103 K	0.04677 kPa
1105 K	0.06457 kPa
1107 K	0.06166 kPa
1116 K	0.06761 kPa
1118 K	0.07943 kPa
1123 K	0.09772 kPa
1127 K	0.1047 kPa and 0.09333 kPa
1135 K	0.1288 kPa
1136 K	0.1349 kPa
1143 K	0.166 kPa
1155 K	0.2138 kPa
